We go through two compounds from patent US20090203778A1, “FATTY ACID ANALOGUES, I.E. INCLUDING DHA DERIVATIVES FOR USES AS A MEDICAMENT” (priority 2005, published 2009).

Data set [1] has as its system adipose prone mice of the C57BL/6J strain. The data set is described as follows: Animal model of metabolic syndrome, adipose prone mice on high-fat diet, 4 months of dietary interventions. It is filed as in vivo. The conditions noted are these: for Body weight / Body wt. gain / NEFA / Insulin / TAGs: 4 months; for AUCglucose: intraperitoneal glucose tolerance test; for Insulin: plasma; for TAGs: serum. The procedure: An animal model of the metabolic syndrome using the adipose prone mice of the C57BL/6J strain was used to document effects on typical laboratory and pathological anatomical features common for the metabolic syndrome. When given a high fat diet containing about 60% of fat, the animals are getting obese developing high insulin plasma levels, pathological glucose tolerance test, elevated serum triglycerides and non-esterified fatty acids, and fat liver. All experiments were performed on male C57BL/6 mice, either a substrain C57BL/N (supplier: Charles River, Germany, n=160, experiments A-C, see below), or a substrain C57BL/6J (supplier: the Jackson laboratory, Bar Harbor, Me., USA, n=32, experiment D). Total numbers of animals used were higher (n=170 and 36, respectively), because of culling. In the latter case, animals were bred for several generations (<20) at the Institute of Physiology. At the beginning of the treatment, animals were 14-week-old and their body weight range was 23.6-27.1 g. One week before the study start, animals were sorted according to their body weight and assigned to subgroups (n=8) of similar mean body weight. […] The animals eliminated from the study at this stage were sacrificed by cervical dislocation. Complete health check of mice was performed by the supplier Charles River and at the start of study serological tests were performed by ANLAB (Prague, Czech Republic). In addition, regular health checks were performed in the animal house in 3-mo-intervals using sentinel mice and serological examinations (ANLAB). In all the tests, the animals were free of specific pathogens. […] All these compounds were in the form of ethyl esters, provided by Pronova Biocare a.s. in sealed containers. Chemical composition of the PRB-compounds was unknown to the laboratory performing the experiments (Institute of Physiology, Academy of Sciences Prague, Czech Republic). After arrival, the PRB-compound were stored in a refrigerator in original containers. The containers were opened just before preparation of the experimental diets. Diets were kept in plastic bags flushed by nitrogen and stored at −70° C. in small aliquots sufficient for feeding animals for one week. Fresh ratios were given in 2-day intervals or daily. The study was based on 4 individual experiments. […] In each experiment, a subgroup of plain cHF diet-fed mice was included and served as a control. Mice were caged in groups of 4 and fed standard chow diet until 3 mo of age, when animals (n=8-13) were randomly assigned to the different test diets. […] Animals were sacrificed after 4 months on the experimental diets, at 7 mo of age, and the end-point analysis were performed.

Data set [2] concerns liver steatosis in mice fed high fat diet. The data set is described as follows: Testing of DHA derivatives on liver fat (histology). It is filed as in vivo. The conditions noted are these: eosin-hematoxylin stained liver. An excerpt: Tissue samples from animals in the experiments with DHA derivatives was histologically analysed. After paraffination, tissue samples from liver, adipose tissue, skeletal muscle, pancreas, and kidney were stained with eosin-hematoxylin.

A further data set has as its target T1, PPARγ (Homo sapiens, UniProt P37231).
T1 construct: For full length PPAR transfection studies, each well received 5 μg reporter construct; expressed in transfected cells; host or cells: COS-1 cells (adipocytes transfected with pSG5-PPARγ are also described)
T1 sequence (P37231 1-505): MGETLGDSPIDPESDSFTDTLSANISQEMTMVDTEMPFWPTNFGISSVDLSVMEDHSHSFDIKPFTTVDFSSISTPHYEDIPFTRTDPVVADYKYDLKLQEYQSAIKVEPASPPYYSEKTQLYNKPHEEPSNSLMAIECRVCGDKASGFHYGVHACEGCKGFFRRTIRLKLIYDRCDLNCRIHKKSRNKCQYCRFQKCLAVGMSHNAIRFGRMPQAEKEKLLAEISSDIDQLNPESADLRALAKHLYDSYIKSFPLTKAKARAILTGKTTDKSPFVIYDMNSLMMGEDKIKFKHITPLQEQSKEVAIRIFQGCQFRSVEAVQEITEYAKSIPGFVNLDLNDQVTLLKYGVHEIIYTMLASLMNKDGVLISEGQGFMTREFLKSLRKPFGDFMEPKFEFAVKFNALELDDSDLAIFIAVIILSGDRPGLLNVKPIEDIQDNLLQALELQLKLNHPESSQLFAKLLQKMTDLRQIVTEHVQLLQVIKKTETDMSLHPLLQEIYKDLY
The data set is described as follows: Affinity testing in transfected cells (luciferase release). The conditions noted are these: 10 μM, FIG. 3. Format: cell-based. As for the experimental part: Release of luciferase is correlated to transcription of genes. Binding of a ligand to a nuclear receptor such as PPARγ induces transcription of the respective gene thereby releasing luciferase. This technique therefore provides a measure of ligand affinity to the receptor as well as activation of the responsible gene.
Transient transfection of COS-1 cells was performed in 6-well plates as described by Graham and van der Eb (Graham). For full length PPAR transfection studies, each well received 5 μg reporter construct, 2.5 μg pSV-β-galactosidase as an internal control, 0.4 μg pSG5-PPARγ2. The cells were harvested after 72 h, and the luciferase activity was measured according to the protocol (Promega). The luciferase activity was normalised against β-galactosidase activity. The adipocytes were transfected at D11 of differentiation using 16 μL LipofectaminPlus reagent, 4 μl Lipofectamine (Life Technologies Inc.), 0.2 μg pSG5-PPARγ, and 100 ng pTK Renilla luciferase as control of transfection afficiency. […] The luciferase activities were measured as recommended by the manufacturer (Dual Luciferase assay, Promega). […]
Fatty acids (BRL or DHA) and PRB-1 (stock solutions) were solubilized to 0.1 M final concentration in DMSO. […] Luciferase activity was measured using a luminometer (TD-20/20 luminometer; Turner Designs, Sunnycvale, Calif.) and normalized against protein content.

Data set [3] is described as follows: Analysis of intracellular free (non-esterified) fatty acids in liver of animals fed PRB-1. The conditions noted are these: liver tissue, 1.5% of the fat content in diet for 8 weeks. Format: in vivo, mice. The procedure: Liver tissue from animals fed PRB-1 was analysed with respect to free unesterified fatty acids. The animals were recruited from Experiment 4 (pharmacodynamic effects of DHA derivatives in an animal model of metabolic syndrome). The animals had been given DHA (15% of fat content of the diet) or the DHA-derivative (1.5% of the fat content in their diet) for 8 weeks and were supposed to be in a steady-state situation with stable levels of DHA and the DHA-derivative intracellularly. Liver tissue was chosen due to the fact that the metabolisation rate is very high in liver.
The liver samples were homogenized in cold PBS buffer, and extracted immediately with chloroform:methanol (2:1) containing 0.2 mM butylated hydroxytoluene (BHT) using cis-10-heptadecenoic acid as internal standard. […] Total protein content was measured using Bio-Rad method after homogenization.
Agilent 1100 system was used for reverse phase column (Supelco Ascentis C18 column, 25 cm×4.6 mm, i.d. 5 μm) separation within 22 min. […] The column elute was identified and quantified in the negative electrospray ionisation applying multiple reaction monitoring mode by triple tandem quadrapole mass/mass (ABI Qtrap-4000). […] The quadratic regression standard curve was used for quantification after internal standard calibration.

[4] abbreviates: 0.15% of fat content of cHF diet.
[5] abbreviates: 0.5% of fat content of cHF diet.
The mark [6] stands for this setting: 1.5% of fat content of cHF diet.

In the case of `CC/C=C\C/C=C\C/C=C\C/C=C\C/C=C\C/C=C\CCC(=O)O` [DHA, (all-Z)-4,7,10,13,16,19-docosahexaenoic acid], in data set [1] (setting [4]), the Fasted glucose is 141 ± 10 mg/dL, the Body weight worked out at 48.3 ± 0.6 grams, the “Body wt. gain” value came out at 24.3 ± 0.8 grams and the NEFA came to 0.96 ± 0.07 mmol/L. In data set [1] (setting [4]), this compound showed an AUCglucose of 1477 ± 214 mM × 180 min, an Insulin of 4.31 ± 0.39 ng/mL and a TAGs of 1.50 ± 0.13 mmol/L. In data set [1] (setting [5]), this compound gave a Fasted glucose of 136 ± 8 mg/dL, a Body weight of 46.9 ± 0.7 grams, a Body wt. gain of 22.9 ± 0.7 grams and an NEFA of 0.89 ± 0.03 mmol/L. In data set [1] (setting [5]), the AUCglucose came to 1816 ± 182 mM × 180 min, the Insulin came to 5.82 ± 0.47 ng/mL and the TAGs was 1.78 ± 0.08 mmol/L. Moreover, in data set [1] (setting [6]), the Fasted glucose came out at 138 ± 7 mg/dL, the Body weight is 47.1 ± 0.7 grams, the Body wt. gain amounted to 23.0 ± 0.8 grams and the NEFA is listed as 0.98 ± 0.07 mmol/L. In data set [1] (setting [6]), this compound displayed an AUCglucose of 2132 ± 288 mM × 180 min, an Insulin of 6.55 ± 0.31 ng/mL and a TAGs of 1.91 ± 0.26 mmol/L.
In data set [1] (setting [4]), `CC/C=C\C/C=C\C/C=C\C/C=C\C/C=C\C/C=C\CC(C)C(=O)OCC` (stereo not drawn) [PRB-1, α-methyl DHA EE] had a Fasted glucose of 126 ± 15 mg/dL, a Body weight of 47.2 ± 1.3 grams, an NEFA of 0.62 ± 0.04 mmol/L and an AUCglucose of 1291 ± 172 mM × 180 min. The compound further returned a TAGs in data set [1] (setting [4]) of 1.75 ± 0.08 mmol/L. In addition, in data set [1] (setting [5]), the Fasted glucose was determined as 131 ± 7 mg/dL, the Body weight is recorded as 47.4 ± 0.6 grams, the Body wt. gain is reported as 23.8 ± 0.5 grams and the NEFA is 0.73 ± 0.04 mmol/L. Besides, in data set [1] (setting [5]), the AUCglucose came to 1596 ± 205 mM × 180 min, the Insulin turned out to be 3.93 ± 0.59 ng/mL and the TAGs was 2.03 ± 0.22 mmol/L. In data set [1] (setting [6]), this compound displayed a Fasted glucose of 130 ± 14 mg/dL, a Body weight of 44.0 ± 1.5 grams, a Body wt. gain of 20.2 ± 1.3 grams and an NEFA of 0.63 ± 0.03 mmol/L. The TAGs in data set [1] (setting [6]) worked out at 1.58 ± 0.08 mmol/L. Moreover, the “degree of fat liver (liver steatosis), histology” value in data set [2] was “low degree of fat liver”. The “release of luciferase from transfected cells” value on PPARγ is given as “high release of luciferase”. Besides, in data set [3], the “concentration of the DHA-derivative (free unesterified fatty acid) in the liver cells” value is “about 10 μg per g of total amount of protein”.
